# Results published in US10272090B1, “Liquid pharmaceutical composition comprising pemetrexed” (SYNTHON B.V., priority 2014, dated 2019).
# Experiment: Solubility / precipitation of pemetrexed diacid in aqueous solution depending on pH
# Format: physicochemical
# Conditions: aqueous solutions with neutral or acidic pH
smiles,measurement,value
"Nc1nc2[nH]cc(CCc3ccc(C(=O)N[C@@H](CCC(=O)O)C(=O)O)cc3)c2c(=O)[nH]1 [pemetrexed diacid, N-[4-[2-(2-amino-4,7-dihydro-4-oxo-1H-pyrrolo[2,3-d]pyrimidin-5-yl)ethyl]benzoyl]-L-glutamic acid]",solubility,very low
